Source: patent US20230382951A1, “BRAIN PENETRATING PEPTIDES” (BOARD OF REGENTS, THE UNIVERSITY OF TEXAS SYSTEM, priority 2020, published 2023)

System: hCMEC/D3 cells
Conditions: third round of biopanning
Description: CX7C-presenting M13 phage biopanning against hCMEC/D3 cells. A M13 phage CX7C library was used to pan against established BBB model hCMEC/D3 in vitro to identify potential brain-penetrating peptides. hCMEC/D3 cells (CELLutions Biosystems Inc.) were cultured in EndoGRO medium (Millipore, #SCME004) on Collagen I (Fisher Scientific, #44310001) coated Culture Ware (150 μg/ml, coated for at least 1 h at 37° C.)^110. […] To establish the cell monolayer on the transwell plate setup, hCMEC/D3 cells (passage 27-30) were seeded on a pre-coated collagen I (100 μg/ml for 3 h) coated 12-well transwell plate (Corning, #3401) at a density of 1.5-2.0*10^5 cells/cm^2 for 12-15 days^49. Transepithelial electrical resistance measurements and permeability assay with small tracer molecule sodium fluorescein were used to monitor the tightness of hCMEC/D3 monolayer. Prior to biopanning, hCMEC/D3 cells were incubated in fetal bovine serum depleted medium for 1 h at 37° C., and then 10^11 plaque forming units (pfu) of M13 phage CX7C library (NEB, #E8120S) was added to the donor compartment of the transwell and incubated for 1 h at 37° C. […]
The NGS data from two replicates of MiSeq run were analyzed on Stampede, a supercomputer run on Texas Advanced Computing Center at UT-Austin. First, to confirm the sequence quality and trim the low-quality sequence reads, fastqc and fastx_toolkit were used on the dataset. […]

## NAGHLSQ [Pep-1]
  frequency relative to second most frequent peptide Pep-2: approximately five-fold higher
